# Data: publication PMC4928627 (Journal of Natural Products, 2016)
# Tests used:
# [1] = tested on: CHIKV Indian Ocean strain 899; experiment: CHIKV CPE reduction assay; format: cell-based, chikungunya virus (CHIKV); conditions: BGM cells, 0.001 MOI CHIKV 899, day 5 p.i.
# BGM cells = experiment: Cytotoxic/cytostatic effect in uninfected cells; format: cell-based, buffalo green monkey; conditions: compound alone
# human cancer cell lines = conditions: growth inhibition; cited from earlier work
structure (smiles),measurement,setting,value
CCCCCCCC(=O)O[C@H]1/C(=C/C(=O)OC)C[C@H]2C[C@H](CO)OC(=O)C[C@H](O)C[C@@H]3C[C@H](OC(C)=O)C(C)(C)[C@H](C[C@@H]4CCO[C@H](/C=C/C(C)(C)[C@]1(O)O2)O4)O3 [compound 10],EC50 (concentration of compound that reduces the CHIKV-induced cytopathic effect by 50%),[1],potent
same,CC50 (concentration at which cell viability is 50% relative to untreated cells),BGM cells,nontoxic
"CCC/C=C/C=C/C(=O)O[C@H]1/C(=C/C(=O)OC)C[C@H]2C[C@H]([C@@H](C)O)OC(=O)C[C@H](O)C[C@@H]3C[C@H](OC(C)=O)C(C)(C)[C@](O)(C[C@@H]4C/C(=C/C(=O)OC)C[C@H](/C=C/C(C)(C)[C@]1(O)O2)O4)O3 [compound 1, Bryostatin 1, reference compound]",EC50 (concentration of compound that reduces the CHIKV-induced cytopathic effect by 50%),[1]; listed as bryostatin,ineffective
same,EC50 (concentration of compound that reduces the CHIKV-induced cytopathic effect by 50%),[1]; listed as bryostatin 1,inactive
C=C1C[C@H]2C[C@]3(O)O[C@H](C[C@@H](O)CC(=O)O[C@@H](CO)C[C@@H]4C/C(=C\C(=O)OC)[C@H](OC(=O)CCCCCCC)[C@@](O)(O4)C(C)(C)/C=C/[C@@H](C1)O2)C[C@H](OC(C)=O)C3(C)C [compound 19],EC50 (concentration of compound that reduces the CHIKV-induced cytopathic effect by 50%),[1],toxicity before any observable cell-protective effect
C=C1C[C@H]2C[C@]3(O)O[C@H](C[C@@H](O)CC(=O)O[C@@H](CO)C[C@@H]4C/C(=C\C(=O)OC)[C@H](OC(=O)CCCCCCC)[C@@](O)(O4)C(C)(C)/C=C/[C@@H](C1)O2)C[C@H](O)C3(C)C [compound 18],EC50 (concentration of compound that reduces the CHIKV-induced cytopathic effect by 50%),[1],toxicity before any observable cell-protective effect
CCCCCCCC(=O)O[C@H]1/C(=C/C(=O)OC)C[C@H]2C[C@H](CO)OC(=O)C[C@H](O)C[C@@H]3CCC[C@H](C[C@@H]4CCO[C@H](/C=C/C(C)(C)[C@]1(O)O2)O4)O3 [compound 3],effectiveness of the analogue relative to the natural product (bryostatin),human cancer cell lines,2–3 orders of magnitude
